Experimental data as given in patent US4966900A, “Cephalosporin β-lactam compound and medicinal composition” (priority 1986, dated 1990).
In brackets after ≈: the same amount, converted by molar mass. Where a name gives a salt, the structure may show the parent alone.

Legend:
[1] = test system: C. freundii 1U692; assay: MIC; details: Citrobacter freundii, 1U692
[2] = test system: P. maltophilia OF247; assay: MIC; details: Stenotrophomonas maltophilia, Table 7
[3] = test system: C. freundii 1R526; assay: MIC; details: Citrobacter freundii, 1R526
[4] = test system: E. colacae GN7471; assay: MIC; details: Table 7
[5] = test system: P. aeruginosa GN10362; assay: MIC; details: Pseudomonas aeruginosa, GN10362
[6] = test system: C. freundii GN7391; assay: MIC; details: Citrobacter freundii, GN7391, C. freundii GN7391; Table 7
[7] = test system: S. aureus Smith; assay: MIC; details: Staphylococcus aureus, Table 7
[8] = test system: C. freundii 5D60-1; assay: MIC; details: Citrobacter freundii, 5D601
[9] = test system: C. freundii 1U589; assay: MIC; details: Citrobacter freundii, 1U589
[10] = test system: P. aeruginosa 4au542; assay: MIC; details: Pseudomonas aeruginosa, 4AU542, P. aeruginosa 4au542; Table 7
[11] = test system: E. cloacae 908RN; assay: MIC; details: Enterobacter cloacae, E. colacae 908RN, Table 7
[12] = test system: C. freundii 1R527; assay: MIC; details: Citrobacter freundii, 1R527
[13] = test system: E. cloacae 1V247; assay: MIC; type: cell-based; details: Enterobacter cloacae, Table 8
Experimental: (§1) The minimum inhibition concentrations (MIC) of the compounds obtained in the respective examples described above were measured according to the standard method of Japanese Chemotherapy Association.

[14] = test system: S. aureus IAA498; assay: MIC; type: cell-based; details: Staphylococcus aureus, Table 7
Experimental: as §1

[15] = test system: E. coli GN5482; assay: MIC; details: Escherichia coli, GN5482, E. coli GN5482; Table 7
[16] = test system: E. coli ML4707; assay: MIC; details: Escherichia coli, ML4707, E. coli ML4707; Table 7
[17] = test system: E. cloacae 5D63-2; assay: MIC; details: Enterobacter cloacae, 5D632
[18] = test system: K. pneumoniae 4at521; assay: MIC; details: Klebsiella pneumoniae, 4AT521
[19] = test system: C. freundii 1R523; assay: MIC; details: Citrobacter freundii, 1R523
[20] = test system: P. vulgaris GN7919; assay: MIC; details: Proteus vulgaris, GN7919
[21] = test system: C. freundii 1R524; assay: MIC; details: Citrobacter freundii, 1R524
[22] = test system: P. cepacia OF189; assay: MIC; details: Burkholderia cepacia, OF189, P. cepacia OF189; Table 7
[23] = test system: E. cloacae 1V25; assay: MIC; details: Enterobacter cloacae
[24] = test system: S. marcescens GN10857; assay: MIC; details: Serratia marcescens, GN10857, S. marcescens GN10857; Table 7
[25] = test system: P. aeruginosa 5D58-1; assay: MIC; details: Pseudomonas aeruginosa, 5D581, P. aeruginosa 5D58-1; Table 7
[26] = test system: E. cloacae 5D52-2; assay: MIC; details: Enterobacter cloacae, 5D522
[27] = in vivo; design: species or system Macaco; details: monkey, 20 mg/kg
Experimental: Each of 20 mg/kg of the compounds obtained in Example 2, Example 25 and Example 28 was administered parenterally to Macaco and the half-time in blood was measured.
The concentrations of the compounds were measured according to HPLC method. Novapack C18 or Microbondapack C18 (trade name, produced by Waters Co.) was used as a column. Further, cefpiramide was used as a control drug.

| Compound | MIC [1] [µg/mL] | MIC [2] [µg/mL] | MIC [3] [µg/mL] | MIC [4] [µg/mL] | MIC [5] [µg/mL] | MIC [6] [µg/mL] | MIC [7] [µg/mL] | MIC [8] [µg/mL] | MIC [9] [µg/mL] | MIC [10] [µg/mL] | MIC [11] [µg/mL] | MIC [12] [µg/mL] | MIC [13] [µg/mL] | MIC [14] [µg/mL] | MIC [15] [µg/mL] | MIC [16] [µg/mL] | MIC [17] [µg/mL] | MIC [18] [µg/mL] | MIC [19] [µg/mL] | MIC [20] [µg/mL] | further results |
| --- | --- | --- | --- | --- | --- | --- | --- | --- | --- | --- | --- | --- | --- | --- | --- | --- | --- | --- | --- | --- | --- |
| CC(=O)Oc1ccc(C(=O)NNC(=O)C(C)(C)ON=C(C(=O)NC2C(=O)N3C(C(=O)O)=C(CSc4cc(C)nc5c(C(=O)O)cnn45)CSC23)c2csc(N)n2)cc1OC(C)=O (centres unmarked) [Example 53, 7-{2-[2-amino-1,3-thiazol-4-yl]-2-[1-(3-(3,4-diacetoxybenzoyl)carbazoyl)-1-methylethoxyimino]acetamido}-3-[(3-carboxy-5-methylpyrazolo[1,5-a]pyrimidin-7-yl)thiomethyl-3-cephem-4-carboxylic acid sodium salt] | 1.56 | 0.78 | 0.78 | 0.78 | 0.05 | 6.25 | 12.5 | 3.13 | 3.13 | 0.05 | 0.78 | 0.78 | 12.5 | 12.5 | 0.012 | 0.012 | 0.39 | 0.012 | 0.78 | 1.56 | MIC [21]: 0.78 µg/mL; MIC [22]: < 0.006 µg/mL; MIC [23]: 6.25 µg/mL; MIC [24]: 0.78 µg/mL; MIC [25]: 0.1 µg/mL; MIC [26]: 0.1 µg/mL |
| CC(=O)Oc1ccc(C(=O)NNC(=O)C(C)(C)ON=C(C(=O)NC2C(=O)N3C(C(=O)O)=C(CSc4cc(C)nc5nc(C(F)(F)F)nn45)CS[C@H]23)c2csc(N)n2)cc1OC(C)=O (some centres unmarked) [Example 48, 7-{2-[2-Amino-1,3-thiazol-4-yl]-2-[1-(3-(3,4-diacetoxybenzoyl)carbazoyl)-1-methylethoxyimino]acetamido}-3-[(5-methyl-2-trifluoromethyl-s-triazolo[1,5-a]pyrimidin-7-yl)-thiomethyl]-3-cephem-4-carboxylic acid] | 12.5 (≈ 13.4 µM) | 12.5 (≈ 13.4 µM) | 12.5 (≈ 13.4 µM) | 12.5 (≈ 13.4 µM) | 0.78 (≈ 0.833 µM) | 12.5 (≈ 13.4 µM) | 6.25 (≈ 6.68 µM) | 12.5 (≈ 13.4 µM) | 12.5 (≈ 13.4 µM) | 1.56 (≈ 1.67 µM) | 3.13 (≈ 3.34 µM) | 25 (≈ 26.7 µM) | 50 (≈ 53.4 µM) | 12.5 (≈ 13.4 µM) | 0.05 (≈ 0.0534 µM) | 0.1 (≈ 0.107 µM) | 1.56 (≈ 1.67 µM) | 0.1 (≈ 0.107 µM) | 0.78 (≈ 0.833 µM) | 3.13 (≈ 3.34 µM) | MIC [21]: 0.78 µg/mL (≈ 0.833 µM); MIC [22]: < 0.006 µg/mL; MIC [23]: 50 µg/mL (≈ 53.4 µM); MIC [24]: 12.5 µg/mL (≈ 13.4 µM); MIC [25]: 0.78 µg/mL (≈ 0.833 µM); MIC [26]: 1.56 µg/mL (≈ 1.67 µM) |
| CC(=O)Oc1ccc(C(=O)NNC(=O)C(C)(C)ON=C(C(=O)NC2C(=O)N3C(C(=O)O)=C(CSc4ccnc5nc(C(=O)O)nn45)CS[C@H]23)c2csc(N)n2)cc1OC(C)=O (some centres unmarked) [Example 46, 7-{2-[2-Amino-1,3-thiazol-4-yl]-2-[1-(3-(3,4-diacetoxybenzoyl)carbazoyl)-1-methylethoxyimino]acetamido}-3-[(2-carboxy-s-triazolo[1,5-a]pyrimidin-7-yl)thiomethyl]-3-cephem-4-carboxylic acid] | 6.25 (≈ 6.96 µM) | 0.78 (≈ 0.869 µM) | 3.13 (≈ 3.49 µM) | 0.78 (≈ 0.869 µM) | 0.2 (≈ 0.223 µM) | 100 (≈ 111 µM) | 12.5 (≈ 13.9 µM) | 12.5 (≈ 13.9 µM) | 6.25 (≈ 6.96 µM) | 0.39 (≈ 0.434 µM) | 12.5 (≈ 13.9 µM) | 3.13 (≈ 3.49 µM) | 25 (≈ 27.8 µM) | 25 (≈ 27.8 µM) | 0.05 (≈ 0.0557 µM) | 0.05 (≈ 0.0557 µM) | 5.25 (≈ 5.85 µM) | 0.025 (≈ 0.0278 µM) | 3.13 (≈ 3.49 µM) | 12.5 (≈ 13.9 µM) | MIC [21]: 3.13 µg/mL (≈ 3.49 µM); MIC [22]: < 0.006 µg/mL; MIC [23]: 25 µg/mL (≈ 27.8 µM); MIC [24]: 0.78 µg/mL (≈ 0.869 µM); MIC [25]: 0.2 µg/mL (≈ 0.223 µM); MIC [26]: 0.39 µg/mL (≈ 0.434 µM) |
| CC(=O)Oc1ccc(C(=O)NNC(=O)C(C)(C)ON=C(C(=O)NC2C(=O)N3C(C(=O)O)=C(CSc4c(C)c(C)nc5c(C(=O)O)cnn45)CS[C@H]23)c2csc(N)n2)cc1OC(C)=O (some centres unmarked) [Example 47, 7-{2-[2-Amino-1,3-thiazol-4-yl]-2-[1-(3-(3,4-diacetoxybenzoyl)carbazoyl)-1-methylethoxyimino]acetamido}-3-[(3-carboxy-5,6-dimethylpyrazolo[1,5-a]pyrimidin-7-yl)thiomethyl]-3-cephem-4-carboxylic acid] | 0.39 (≈ 0.422 µM) | 0.78 (≈ 0.843 µM) | 0.39 (≈ 0.422 µM) | 0.39 (≈ 0.422 µM) | 0.39 (≈ 0.422 µM) | 1.56 (≈ 1.69 µM) | 25 (≈ 27 µM) | 0.78 (≈ 0.843 µM) | 1.56 (≈ 1.69 µM) | 0.78 (≈ 0.843 µM) | 0.78 (≈ 0.843 µM) | 0.78 (≈ 0.843 µM) | 3.13 (≈ 3.38 µM) | 50 (≈ 54.1 µM) | 0.025 (≈ 0.027 µM) | 0.025 (≈ 0.027 µM) | 0.39 (≈ 0.422 µM) | 0.025 (≈ 0.027 µM) | 0.39 (≈ 0.422 µM) | 6.26 (≈ 6.77 µM) | MIC [21]: 0.39 µg/mL (≈ 0.422 µM); MIC [22]: < 0.006 µg/mL; MIC [23]: 3.13 µg/mL (≈ 3.38 µM); MIC [24]: 0.39 µg/mL (≈ 0.422 µM); MIC [25]: 0.39 µg/mL (≈ 0.422 µM); MIC [26]: 0.2 µg/mL (≈ 0.216 µM) |
| Cc1cc(O)c(C(=O)N[C@@H](C(=O)N[C@@H]2C(=O)N3C(C(=O)O)=C(CSc4nnnn4C)CS[C@H]23)c2ccc(O)cc2)cn1 [Cefpiramide, cefpiramide, reference compound] |  |  |  |  |  |  |  |  |  |  |  |  |  |  |  |  |  |  |  |  | half-life [27]: 2.5 h |
| CC(C)(ON=C(C(=O)NC1C(=O)N2C(C(=O)O)=C(CSc3ccnc4nc(C(=O)O)nn34)CS[C@H]12)c1csc(N)n1)C(=O)NNC(=O)c1ccc(O)c(O)c1 (some centres unmarked) [Example 56, 7-{2-[2-Amino-1,3-thiazol-4-yl]-2-[1-(3-(3,4-dihydroxybenzoyl)carbazoyl)-1-methylethoxyimino]acetamido}-3-[(2-carboxy-s-triazolo[1,5-a]pyrimidin-7-yl)thiomethyl]-3-cephem-4-carboxylic acid] | 6.25 (≈ 7.68 µM) | 0.39 (≈ 0.479 µM) | 3.13 (≈ 3.85 µM) | 0.39 (≈ 0.479 µM) | 0.1 (≈ 0.123 µM) | 25 (≈ 30.7 µM) | 6.25 (≈ 7.68 µM) | 6.25 (≈ 7.68 µM) | 6.25 (≈ 7.68 µM) | 0.2 (≈ 0.246 µM) | 1.56 (≈ 1.92 µM) | 1.56 (≈ 1.92 µM) | 12.5 (≈ 15.4 µM) | 12.5 (≈ 15.4 µM) | 0.025 (≈ 0.0307 µM) | 0.025 (≈ 0.0307 µM) | 1.56 (≈ 1.92 µM) | 0.025 (≈ 0.0307 µM) | 1.56 (≈ 1.92 µM) | 1.56 (≈ 1.92 µM) | MIC [21]: 1.56 µg/mL (≈ 1.92 µM); MIC [22]: < 0.006 µg/mL; MIC [23]: 12.5 µg/mL (≈ 15.4 µM); MIC [24]: 0.39 µg/mL (≈ 0.479 µM); MIC [25]: 0.05 µg/mL (≈ 0.0614 µM); MIC [26]: 0.1 µg/mL (≈ 0.123 µM) |
